Test results reported in PMC10313368 (The Journal of Clinical Investigation, 2023).
pIC50: −log10 of the molar value. “And” between values parts separate entries of the source, which are not always exact repeats. Equal entries are not always repeated.

Legend:
[1] = system: HIF-regulated vasoactive mediators; experiment: mRNA expression of HIF-regulated vasoactive mediators in retina of STZ-induced diabetic mice (qPCR); assay type: in vivo, mouse; settings: STZ mice, replicates; for Angptl4 mRNA / Vegfa mRNA: S Figure 3B; for Angpt2 mRNA / Ptprb mRNA: S Figure 3C
Method: Reverse transcription and quantitative real-time PCR. Total RNA was isolated from cultured cells or retinas with PureLinkTM RNA Mini Kit (Invitrogen #12183025), and cDNA was prepared with MuLV Reverse Transcriptase (Applied Biosystems). Quantitative real-time PCR was performed with Power SYBR Green PCR Master Mix (Applied Biosystems) and MyiQ Real-Time PCR Detection System (Bio-Rad). Normalization was done using cyclophilin A for mouse tissue and human cell lines. Primers are listed in Supplemental Table 2. […]
STZ-induced diabetes mouse model. 8-to-10 week-old male mice received an IP injection of STZ at 40 mg/kg of body weight in 0.1M of citrate buffer (pH 4.5) for 5 consecutive days. Normal chow and 10% sucrose water were provided during this period. 10% sucrose was discontinued and replaced with regular water on experimental day 6. Blood glucose was measured on experimental day 28 after 16 hours fasting and mice with blood glucose level > 250 mg/dL were considered […]
Intraperitoneal (IP) injections. […]

[2] = biological target: T1, HIF-1α (Mus musculus, UniProt Q61221); experiment: Western blot of HIF-1α in neurosensory retina of STZ-diabetic mice; assay type: in vivo; settings: IP 32-134D 40 or 80 mg/kg; Supplementary Figure 3
T1 construct: from tissue; host or cells: retina of C57BL/6 OIR pups
T1 sequence (Q61221 whole entry): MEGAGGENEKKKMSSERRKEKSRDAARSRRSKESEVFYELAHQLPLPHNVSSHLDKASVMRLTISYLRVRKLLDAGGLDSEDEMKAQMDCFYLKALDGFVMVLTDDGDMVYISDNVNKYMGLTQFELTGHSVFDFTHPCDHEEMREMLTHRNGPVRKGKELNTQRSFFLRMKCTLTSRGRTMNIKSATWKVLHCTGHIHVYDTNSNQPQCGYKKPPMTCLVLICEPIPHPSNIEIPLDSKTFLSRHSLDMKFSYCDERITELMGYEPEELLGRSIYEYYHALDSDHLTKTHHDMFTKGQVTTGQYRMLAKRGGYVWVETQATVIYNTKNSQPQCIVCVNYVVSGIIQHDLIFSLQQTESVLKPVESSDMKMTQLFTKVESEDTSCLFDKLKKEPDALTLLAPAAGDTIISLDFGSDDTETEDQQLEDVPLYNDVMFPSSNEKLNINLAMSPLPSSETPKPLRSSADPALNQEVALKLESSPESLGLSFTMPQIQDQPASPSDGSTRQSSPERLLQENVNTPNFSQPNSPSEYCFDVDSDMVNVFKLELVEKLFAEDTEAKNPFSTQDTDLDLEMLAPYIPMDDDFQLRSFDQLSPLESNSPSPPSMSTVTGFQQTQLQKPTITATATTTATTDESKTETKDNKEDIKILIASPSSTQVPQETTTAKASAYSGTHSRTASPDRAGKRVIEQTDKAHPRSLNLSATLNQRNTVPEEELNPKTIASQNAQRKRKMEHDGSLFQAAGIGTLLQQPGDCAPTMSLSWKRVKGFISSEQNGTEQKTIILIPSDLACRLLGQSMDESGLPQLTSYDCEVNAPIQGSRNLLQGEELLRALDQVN
Method: Immunoblot assays. Cells, neurosensory retina, and D120 retinal organoid lysates were subjected to 4–15% gradient SDS/PAGE (Invitrogen). Immunoblot (Western blot or WB) assays were performed as previously described (1).
Reverse transcription and quantitative real-time PCR. Total RNA was isolated from cultured cells or retinas with PureLinkTM RNA Mini Kit (Invitrogen #12183025), and cDNA was prepared with MuLV Reverse Transcriptase (Applied Biosystems). Quantitative real-time PCR was performed with Power SYBR Green PCR Master Mix (Applied Biosystems) and MyiQ Real-Time PCR Detection System (Bio-Rad). Normalization was done using cyclophilin A for mouse tissue and human cell lines. Primers are listed in Supplemental Table 2.
Angiogenesis array. Total RNA was isolated from MIO-MI cells (8 hours) and HUVECs (16 […]
cDNA was prepared with QuantiTect® Reverse Transcription Kit (Qiagen, Cat# 205311). […]
STZ-induced diabetes mouse model. […] Blood glucose was measured on experimental day 28 after 16 hours fasting and mice with blood glucose level > 250 mg/dL were considered […]
the peritoneal cavity of neonatal C57BL/6 mice and STZ mice at indicated times, and the retinal vasculature and lysates for WB and qPCR were assessed at P17. […]

[3] = biological target: HIF-1α (Homo sapiens, UniProt Q16665); experiment: Immunoblot of HIF-1α accumulation in MIO-M1 cells cultured in hypoxia; assay type: cell-based; design: endogenous in cells; host or cells: MIO-M1
HIF-1α (Homo sapiens, UniProt Q16665), sequence (Q16665 whole entry): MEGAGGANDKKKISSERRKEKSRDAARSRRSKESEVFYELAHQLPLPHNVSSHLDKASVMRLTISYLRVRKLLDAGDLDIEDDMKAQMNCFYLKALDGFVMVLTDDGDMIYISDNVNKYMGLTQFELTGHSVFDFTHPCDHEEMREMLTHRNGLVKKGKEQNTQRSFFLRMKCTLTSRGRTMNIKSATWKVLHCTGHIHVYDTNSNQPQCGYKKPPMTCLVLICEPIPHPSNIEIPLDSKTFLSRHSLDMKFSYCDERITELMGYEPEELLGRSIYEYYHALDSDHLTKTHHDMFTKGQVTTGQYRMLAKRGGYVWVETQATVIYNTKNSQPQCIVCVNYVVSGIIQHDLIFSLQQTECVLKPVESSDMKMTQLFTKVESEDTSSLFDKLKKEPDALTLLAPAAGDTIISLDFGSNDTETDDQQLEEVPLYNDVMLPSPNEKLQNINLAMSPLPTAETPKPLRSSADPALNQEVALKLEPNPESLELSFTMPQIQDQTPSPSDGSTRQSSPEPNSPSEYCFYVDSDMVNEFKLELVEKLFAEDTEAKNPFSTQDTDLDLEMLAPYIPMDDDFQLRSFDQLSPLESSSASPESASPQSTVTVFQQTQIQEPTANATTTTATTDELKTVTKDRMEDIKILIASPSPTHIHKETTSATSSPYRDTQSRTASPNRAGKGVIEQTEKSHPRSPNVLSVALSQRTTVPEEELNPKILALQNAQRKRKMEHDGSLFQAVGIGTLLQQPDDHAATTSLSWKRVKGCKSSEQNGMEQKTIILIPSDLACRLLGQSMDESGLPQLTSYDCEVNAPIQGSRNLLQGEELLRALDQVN
Method: MIO-M1, HUVECs, and ARPE19 cells were cultured in DMEM with 10% (vol/vol) FBS (Quality Biological) and 1% penicillin/streptomycin (Cellgro). A hypoxic chamber (Coy Laboratory Product Inc.; Two Glove Model) with 5% CO2, 94% N2, and 1% O2 gas concentration at 37°C was used to culture hypoxic cells. The control cells were cultured in an incubator maintained at 37°C, with 21% O2 and 5% CO2. […] Aflibercept was obtained from the Johns Hopkins University Pharmacy.
Immunoblot assays. Cells, neurosensory retina, and D120 retinal organoid lysates were subjected
to 4–15% gradient SDS/PAGE (Invitrogen). Immunoblot (Western blot or WB) assays were
performed as previously described (1). […]

Brc1ccc2c(-c3csc(-c4c[nH]c5c(Br)cccc45)n3)c[nH]c2c1 [32-134D, 4-(6-bromo-1H-indol-3-yl)-2-(7-bromo-1H-indol-3-yl)thiazole]
Angptl4 mRNA ([1]; 40mg/kg i.p., 40 mg/kg): 0.6634 and 0.674 and 0.6653 | Vegfa mRNA ([1]; 40mg/kg i.p., 40 mg/kg): 1.885 and 1.498 and 1.761 | Angptl4 mRNA ([1]; 80mg/kg i.p., 80 mg/kg): 0.5186 and 0.5762 and 0.6276 | Vegfa mRNA ([1]; 80mg/kg i.p., 80 mg/kg): 1.453 and 1.442 and 1.52 | Angpt2 mRNA ([1]; 40mg/kg i.p., 40 mg/kg): 0.559 and 0.5248 and 0.5704 | Ptprb mRNA ([1]; 40mg/kg i.p., 40 mg/kg): 0.7022 and 0.6022 and 0.6973 | Angpt2 mRNA ([1]; 80mg/kg i.p., 80 mg/kg): 0.5647 and 0.5575 and 0.5047 | Ptprb mRNA ([1]; 80mg/kg i.p., 80 mg/kg): 0.8502 and 0.8904 and 0.75 | HIF-1α expression in neurosensory retina of STZ mice [2]: inhibits HIF | HIF-1α protein accumulation in response to hypoxia ([3]; MIO-M1, 1 μM 32-134D, 1% O2 4 hours): decreased | persistence of effect on HIF-1α accumulation after treatment ([3]; MIO-M1, 10 μM, hypoxia 1 to 24 hours): up to 16 hours | pIC50 ([3]; MIO-M1 cells cultured in hypoxia, read-out: IC50, HIF-1α protein accumulation (quantitation of immunoblots)): 5.46
